The text below walks through data of patent US9073918B2, “Pyrazolo[4,3-b]pyridine-7-amine inhibitors of ALK5” (Takeda Pharmaceutical Company Limited, priority 2010, dated 2015).

The target of the test is T1, TGF-β R1 ALK5 (Homo sapiens, UniProt P36897).
T1 construct: purchased Invitrogen PV5837
T1 sequence (P36897 34-503): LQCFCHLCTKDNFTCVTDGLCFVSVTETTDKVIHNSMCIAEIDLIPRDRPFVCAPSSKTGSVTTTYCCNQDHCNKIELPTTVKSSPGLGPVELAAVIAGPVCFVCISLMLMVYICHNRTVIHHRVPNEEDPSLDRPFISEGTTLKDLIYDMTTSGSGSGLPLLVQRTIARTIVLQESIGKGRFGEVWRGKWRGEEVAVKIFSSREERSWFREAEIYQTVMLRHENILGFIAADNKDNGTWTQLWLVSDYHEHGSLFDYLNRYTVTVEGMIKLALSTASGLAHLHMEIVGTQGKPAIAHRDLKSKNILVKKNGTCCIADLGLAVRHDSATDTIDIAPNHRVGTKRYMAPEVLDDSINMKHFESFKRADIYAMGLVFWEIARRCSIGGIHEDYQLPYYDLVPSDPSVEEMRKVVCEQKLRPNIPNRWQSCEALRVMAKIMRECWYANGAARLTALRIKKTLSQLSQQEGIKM
The test is described as follows: In vitro inhibition of ALK5 (LanthaScreen activity assay, TR-FRET). The class given is biochemical. As for the experimental part: Test compounds were screened for TGF-β R1 ALK5 inhibition by use of a LanthaScreen™ activity assay (PV5837 Invitrogen, Invitrogen Corp. Madison, Wis.).
In brief, the assay procedure was as follows:
Solutions of test compounds were prepared in DMSO and diluted two-fold serially.
Assays were incubated for 90 minutes at room temperature and then quenched by the addition of 60 mM EDTA and 8 nM Terbium labeled anti-pSMAD3 Antibody (M4337 from Invitrogen) giving a final concentration of 15 mM EDTA and 2 nM Terbium labeled anti-pSMAD3 Antibody. Phosphorylated peptide product was quantified by measuring an increase in TR-FRET on a BMG LABTECH PHERA star plus. Response is defined as the ratio of Channel A/Channel B. The response of a blank (uninhibited) using vehicle alone is also determined. Enzyme activity was defined as the response of uninhibited enzyme activity minus the response of assays containing no enzyme. The percent inhibition of ALK5 at a given compound concentration is defined as: 100%×[1−(response compound/response blank)]
where response compound is defined as the enzyme activity in the presence of test compound and response blank is defined as the uninhibited enzyme activity. The pIC50 value (negative log of the molar concentration of the compound that produces 50% inhibition) of a test compound is calculated by non-linear least squares curve fitting of the equation: Percent Inhibition=100%/(1+(10−pIC50/10 log [I])).
Where inhibition was measured in multiple experiments the value in Table 1 is an average. N.T. means not tested.
(Time-resolved FRET reads energy transfer from a long-lived donor to a nearby acceptor.)
In turn, `Cc1cc(Nc2ccnc3cn[nH]c23)cc(-c2cc(Cl)ccc2F)n1` [Example 57, N-(2-(5-chloro-2-fluorophenyl)-6-methylpyridin-4-yl)-1H-pyrazolo[4,3-b]pyridin-7-amine] gave an IC50 of 39.8 nM. In other words, the double-digit nanomolar range.

The compound `Cc1ccc(F)c(-c2cc(Nc3ccnc4cn(CC(C)(C)O)nc34)c(C)cn2)n1` [Example 8, 1-(7-(3′-fluoro-5,6′-dimethyl-2,2′-bipyridin-4-ylamino)-2H-pyrazolo[4,3-b]pyridin-2-yl)-2-methylpropan-2-ol] had an IC50 of 251 nM.

In turn, `Fc1ccc(Cl)cc1-c1cc(Nc2ccnc3cnn(CC4CCOCC4)c23)ccn1` [Example 24, N-(2-(5-chloro-2-fluorophenyl)pyridin-4-yl)-1-((tetrahydro-2H-pyran-4-yl)methyl)-1H-pyrazolo[4,3-b]pyridin-7-amine] showed an IC50 of 1580 nM.

On to `Cc1ccc(F)c(-c2cc(Nc3ccnc4cn[nH]c34)c(C)cn2)n1` [Example 11, N-(3′-fluoro-5,6′-dimethyl-2,2′-bipyridin-4-yl)-1H-pyrazolo[4,3-b]pyridin-7-amine], for which the IC50 was 2.51 nM.

`CNC(=O)n1ncc2nccc(Nc3ccnc(-c4nc(C)ccc4F)c3)c21` [Example 74, 7-(3′-fluoro-6′-methyl-2,2′-bipyridin-4-ylamino)-N-methyl-1H-pyrazolo[4,3-b]pyridine-1-carboxamide]: the IC50 is 39.8 nM. This IC50 lies about 16-fold higher than the previous one.

`CNC(=O)n1ncc2nccc(Nc3ccnc(-c4cc(C)ccc4F)c3)c21` [Example 75, 7-(2-(2-fluoro-5-methylphenyl)pyridin-4-ylamino)-N-methyl-1H-pyrazolo[4,3-b]pyridine-1-carboxamide]: the IC50 is 25.1 nM.

For the compound `Cc1cccc(-c2cc(Nc3ccnc4cn(CC(N)=O)nc34)c(C)cn2)n1` [Example 12, 2-(7-(5,6′-dimethyl-2,2′-bipyridin-4-ylamino)-2H-pyrazolo[4,3-b]pyridin-2-yl)acetamide], the IC50 was 31.6 nM.

Compound `Cc1ccc(F)c(-c2cc(Nc3ccnc4c[nH]nc34)ccn2)n1` [Example 64, N-(3′-fluoro-6′-methyl-2,2′-bipyridin-4-yl)-2H-pyrazolo[4,3-b]pyridin-7-amine] showed a concentration for half-maximal inhibition (IC50) of 126 nM.

Consider `CNC(=O)Cn1ncc2nccc(Nc3cc(-c4cc(F)ccc4F)ncc3C)c21` [Example 159, 2-(7-(2-(2,5-difluorophenyl)-5-methylpyridin-4-ylamino)-1H-pyrazolo[4,3-b]pyridin-1-yl)-N-methylacetamide], for which 39.8 nM corresponded to half-maximal inhibition (IC50).

In the case of `Cc1ccc(F)c(-c2cc(Nc3ccnc4cnn(CC(N)=O)c34)ccn2)n1` [Example 85, 2-(7-(3′-fluoro-6′-methyl-2,2′-bipyridin-4-ylamino)-1H-pyrazolo[4,3-b]pyridin-1-yl)acetamide], the IC50 is 25.1 nM. Compared with the last compound, the IC50 is about 1.6-fold lower.

In the case of `Cc1ccc(F)c(-c2cc(Nc3ccnc4cn(CC(N)=O)nc34)c(C)cn2)n1` [Example 14, 2-(7-(3′-fluoro-5,6′-dimethyl-2,2′-bipyridin-4-ylamino)-2H-pyrazolo[4,3-b]pyridin-2-yl)acetamide], inhibition was half-maximal at 10 nM (IC50). Compared with the last compound, the IC50 is about 2.5-fold lower.

With `Cc1cnc(-c2cc(Cl)ccc2F)nc1Nc1ccnc2cnn(CC(N)=O)c12` [Example 3, 2-(7-(2-(5-chloro-2-fluorophenyl)-5-methylpyrimidin-4-ylamino)-1H-pyrazolo[4,3-b]pyridin-1-yl)acetamide], the IC50 was 6.31 nM. Compared with the last compound, the IC50 is about 1.6-fold lower.

The compound `CCNC(=O)n1ncc2nccc(Nc3cc(C)nc(-c4cc(Cl)ccc4F)c3)c21` [Example 59, 7-(2-(5-chloro-2-fluorophenyl)-6-methylpyridin-4-ylamino)-N-ethyl-1H-pyrazolo[4,3-b]pyridine-1-carboxamide] had an IC50 of 316 nM.

Take `CCS(=O)(=O)n1cc2nccc(Nc3cc(C)nc(-c4cc(Cl)ccc4F)c3)c2n1` [Example 61, N-(2-(5-chloro-2-fluorophenyl)-6-methylpyridin-4-yl)-2-(ethylsulfonyl)-2H-pyrazolo[4,3-b]pyridin-7-amine]: the midpoint of inhibition, the IC50, lay at 251 nM.

Consider `Cc1cnc(-c2cc(Cl)ccc2F)nc1Nc1ccnc2cn(CC(N)=O)nc12` [Example 4, 2-(7-(2-(5-chloro-2-fluorophenyl)-5-methylpyrimidin-4-ylamino)-2H-pyrazolo[4,3-b]pyridin-2-yl)acetamide], for which half-maximal inhibition (IC50) required 6.31 nM.

The compound `NC(=O)Cn1ncc2nccc(Nc3ccnc(-c4cc(Cl)ccc4F)c3)c21` [Example 44, 2-(7-(2-(5-chloro-2-fluorophenyl)pyridin-4-ylamino)-1H-pyrazolo[4,3-b]pyridin-1-yl)acetamide] gave a concentration for half-maximal inhibition (IC50) of 31.6 nM.

In turn, `CC(C(N)=O)n1cc2nccc(Nc3ccnc(-c4cc(Cl)ccc4F)c3)c2n1` (stereo not drawn) [Example 45, 2-(7-(2-(5-chloro-2-fluorophenyl)pyridin-4-ylamino)-2H-pyrazolo[4,3-b]pyridin-2-yl)propanamide] had an IC50 of 50.1 nM. Compared with the last compound, the IC50 is about 1.6-fold higher.

Regarding `O=C(Cn1ncc2nccc(Nc3ccnc(-c4cc(Cl)ccc4F)c3)c21)N1CCOCC1` [Example 42, 2-(7-(2-(5-chloro-2-fluorophenyl)pyridin-4-ylamino)-1H-pyrazolo[4,3-b]pyridin-1-yl)-1-morpholinoethanone], inhibition was half-maximal at 316 nM (IC50).

`Fc1ccc(Cl)cc1-c1cc(Nc2ccnc3cnn(CC4CCNCC4)c23)ccn1` [Example 26, N-(2-(5-chloro-2-fluorophenyl)pyridin-4-yl)-1-(piperidin-4-ylmethyl)-1H-pyrazolo[4,3-b]pyridin-7-amine] had an IC50 of 2510 nM.

On to `Cc1ccc(F)c(-c2cc(Nc3ccnc4cn(CCO)nc34)ccn2)n1` [Example 72, 2-(7-(3′-fluoro-6′-methyl-2,2′-bipyridin-4-ylamino)-2H-pyrazolo[4,3-b]pyridin-2-yl)ethanol], for which half-maximal inhibition (IC50) required 158 nM.

In the case of `NC(=O)n1ncc2nccc(Nc3ccnc(-c4cc(Cl)ccc4F)c3)c21` [Example 30, 7-(2-(5-chloro-2-fluorophenyl)pyridin-4-ylamino)-1H-pyrazolo[4,3-b]pyridine-1-carboxamide], the IC50 was 50.1 nM.

In the case of `CN(C)C(=O)Cn1ncc2nccc(Nc3ccnc(-c4cc(Cl)ccc4F)c3)c21` [Example 38, 2-(7-(2-(5-chloro-2-fluorophenyl)pyridin-4-ylamino)-1H-pyrazolo[4,3-b]pyridin-1-yl)-N,N-dimethylacetamide], the 50% inhibitory concentration (IC50) is 251 nM. Against the preceding compound, the IC50 is about 5-fold higher.

In the case of `Cc1ccc(F)c(-c2cc(Nc3ccnc4cn(CCO)nc34)c(C)cn2)n1` [Example 9, 2-(7-(3′-fluoro-5,6′-dimethyl-2,2′-bipyridin-4-ylamino)-2H-pyrazolo[4,3-b]pyridin-2-yl)ethanol], the IC50 was 7.94 nM.

For the compound `CCNC(=O)n1ncc2nccc(Nc3ccnc(-c4cc(Cl)c(F)cc4F)c3)c21` [Example 62, 7-(2-(5-chloro-2,4-difluorophenyl)pyridin-4-ylamino)-N-ethyl-1H-pyrazolo[4,3-b]pyridine-1-carboxamide], 12.6 nM corresponded to half-maximal inhibition (IC50).

The compound `CCNC(=O)n1ncc2nccc(Nc3ccnc(-c4cc(C)ccc4F)c3)c21` [Example 80, N-ethyl-7-(2-(2-fluoro-5-methylphenyl)pyridin-4-ylamino)-1H-pyrazolo[4,3-b]pyridine-1-carboxamide] gave an IC50 of 31.6 nM.

`CCS(=O)(=O)n1cc2nccc(Nc3cc(-c4cc(Cl)ccc4F)ncc3C)c2n1` [Example 56, N-(2-(5-chloro-2-fluorophenyl)-5-methylpyridin-4-yl)-2-(ethylsulfonyl)-2H-pyrazolo[4,3-b]pyridin-7-amine]: the IC50 is 12.6 nM. This IC50 lies about 2.5-fold lower than the previous one.

`Cc1ccc(F)c(-c2cc(Nc3ccnc4cnn(CC(N)=O)c34)c(C)cn2)n1` [Example 13, 2-(7-(3′-fluoro-5,6′-dimethyl-2,2′-bipyridin-4-ylamino)-1H-pyrazolo[4,3-b]pyridin-1-yl)acetamide] gave a 50% inhibitory concentration (IC50) of 2.51 nM.

With `Fc1ccc(Cl)cc1-c1cc(Nc2ccnc3cn(CC4CCOCC4)nc23)ccn1` [Example 23, N-(2-(5-chloro-2-fluorophenyl)pyridin-4-yl)-2-((tetrahydro-2H-pyran-4-yl)methyl)-2H-pyrazolo[4,3-b]pyridin-7-amine], it took 316 nM to reach half-maximal inhibition (IC50).

The compound `O=C1NCCN1CCn1ncc2nccc(Nc3ccnc(-c4cc(Cl)ccc4F)c3)c21` [Example 41, 1-(2-(7-(2-(5-chloro-2-fluorophenyl)pyridin-4-ylamino)-1H-pyrazolo[4,3-b]pyridin-1-yl)ethyl)imidazolidin-2-one] had an IC50 of 316 nM.

In turn, `Cc1ccc(F)c(-c2cc(Nc3ccnc4cn(CC(N)=O)nc34)ccn2)n1` [Example 84, 2-(7-(3′-fluoro-6′-methyl-2,2′-bipyridin-4-ylamino)-2H-pyrazolo[4,3-b]pyridin-2-yl)acetamide] showed an IC50 of 31.6 nM.

Broadly, the IC50 is the concentration needed to halve the response being measured.
